Measured values taken from PubChem BioAssay (NCI).
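1) Cells in 96-well plates. 2) Compound, 48 h, 5 concentrations. 3) Linear interpolation between surrounding doses. 4) Unreached endpoint = highest concentration. At the TGI there is no net growth.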

Assays:
Assay in all cases: NCI tumour cell line growth inhibition, 48 h
[1] = system: 786-0 renal
[2] = system: A498 renal
[3] = system: A549 NSCLC
[4] = system: ACHN renal
[5] = system: COLO 205 colon
[6] = system: DU-145 prostate
[7] = system: EKVX NSCLC
[8] = system: HCC-2998 colon
[9] = system: HCT-116 colon
[10] = system: HCT-15 colon
[11] = system: HS 578T breast
[12] = system: HT29 colon
[13] = system: IGROV1 ovarian
[14] = system: KM12 colon
[15] = system: M14 melanoma
[16] = system: MALME-3M melanoma
[17] = system: MCF7 breast
[18] = system: MDA-MB-231 breast
[19] = system: MDA-MB-435
[20] = system: MDA-N
[21] = system: NCI-H226 lung
[22] = system: NCI-H23 lung
[23] = system: NCI-H460 lung
[24] = system: NCI/ADR-RES ovarian
[25] = system: OVCAR-4 ovarian
[26] = system: OVCAR-5 ovarian
[27] = system: PC-3 prostate
[28] = system: RXF 393 renal
[29] = system: SF-268 CNS
[30] = system: SF-539 CNS
[31] = system: SK-MEL-2 melanoma
[32] = system: SK-MEL-28 melanoma
[33] = system: SK-OV-3 ovarian
[34] = system: SN12C renal
[35] = system: SNB-75 CNS
[36] = system: SW-620 colon
[37] = system: T-47D breast
[38] = system: TK-10 renal
[39] = system: UACC-257 melanoma
[40] = system: UACC-62 melanoma
[41] = system: CCRF-CEM leukemia
[42] = system: HL-60(TB) leukemia
[43] = system: HOP-92 NSCLC
[44] = system: K-562 leukemia
[45] = system: LOX IMVI melanoma
[46] = system: MOLT-4 leukemia
[47] = system: NCI-H522 lung
[48] = system: OVCAR-3 ovarian
[49] = system: OVCAR-8 ovarian
[50] = system: SF-295 CNS
[51] = system: SK-MEL-5 melanoma
[52] = system: SNB-19 CNS
[53] = system: SR leukemia
[54] = system: U251 CNS
[55] = system: UO-31 renal

Structure (SMILES): CCCCCCCCCCCCCCCC1(OC)C[N+](C)(C)CCO1 (configuration not stated)
- TGI [1]: 2.05 µM
- TGI [2]: 67.5 µM
- TGI [3]: 3.45 µM
- TGI [4]: 5.8 µM
- TGI [5]: 2.58 µM
- TGI [6]: 5.9 µM
- TGI [7]: 5.76 µM
- TGI [8]: 6.18 µM
- TGI [9]: 3.38 µM
- TGI [10]: 28.9 µM
- TGI [11]: 7.22 µM
- TGI [12]: 2.56 µM
- TGI [13]: 3.16 µM
- TGI [14]: 1.96 µM
- TGI [15]: 3.13 µM
- TGI [16]: 4.7 µM
- TGI [17]: 0.901 µM
- TGI [18]: 4.8 µM
- TGI [19]: 3.63 µM
- TGI [20]: 4.99 µM
- TGI [21]: 3.6 µM
- TGI [22]: 2.81 µM
- TGI [23]: 5.57 µM
- TGI [24]: 41.7 µM
- TGI [25]: 5.96 µM
- TGI [26]: 6.08 µM
- TGI [27]: 6.21 µM
- TGI [28]: 2.39 µM
- TGI [29]: 5.04 µM
- TGI [30]: 3.49 µM
- TGI [31]: 7.63 µM
- TGI [32]: 6.33 µM
- TGI [33]: 21.8 µM
- TGI [34]: 3.94 µM
- TGI [35]: 0.445 µM
- TGI [36]: 26.4 µM
- TGI [37]: 33.6 µM
- TGI [38]: 5.33 µM
- TGI [39]: 4.85 µM
- TGI [40]: 7.64 µM

Structure (SMILES): NC(=O)Oc1ccccc1
- TGI [2]: > 100 µM
- TGI [3]: > 100 µM
- TGI [4]: > 100 µM
- TGI [41]: > 100 µM
- TGI [5]: > 100 µM
- TGI [6]: > 100 µM
- TGI [8]: > 100 µM
- TGI [9]: > 100 µM
- TGI [10]: > 100 µM
- TGI [42]: > 100 µM
- TGI [43]: > 100 µM
- TGI [11]: > 100 µM
- TGI [12]: > 100 µM
- TGI [44]: > 100 µM
- TGI [14]: > 100 µM
- TGI [45]: > 100 µM
- TGI [15]: > 100 µM
- TGI [17]: > 100 µM
- TGI [18]: > 100 µM
- TGI [19]: > 100 µM
- TGI [20]: > 100 µM
- TGI [46]: > 100 µM
- TGI [21]: > 100 µM
- TGI [22]: > 100 µM
- TGI [23]: > 100 µM
- TGI [47]: > 100 µM
- TGI [24]: > 100 µM
- TGI [48]: > 100 µM
- TGI [25]: > 100 µM
- TGI [49]: > 100 µM
- TGI [27]: > 100 µM
- TGI [28]: > 100 µM
- TGI [29]: > 100 µM
- TGI [50]: > 100 µM
- TGI [32]: > 100 µM
- TGI [51]: > 100 µM
- TGI [33]: > 100 µM
- TGI [34]: > 100 µM
- TGI [52]: > 100 µM
- TGI [35]: > 100 µM
- TGI [53]: > 100 µM
- TGI [36]: > 100 µM
- TGI [37]: > 100 µM
- TGI [38]: > 100 µM
- TGI [54]: > 100 µM
- TGI [39]: > 100 µM
- TGI [55]: > 100 µM
